Data on 35 compounds can be found in patent US20240000746A1, “New Cooling Agents and Preparations Containing Them” (Symrise AG, priority 2020, published 2024).

pEC50: −log10 of the molar value. Where “and” joins values, the source holds several entries; their conditions need not be identical. Equal entries are not always repeated.

The target in the first assay is T1, human TRPM8 receptor (Homo sapiens, UniProt Q7Z2W7).
T1 construct: expressed in transfected cells
T1 sequence (Q7Z2W7 whole entry): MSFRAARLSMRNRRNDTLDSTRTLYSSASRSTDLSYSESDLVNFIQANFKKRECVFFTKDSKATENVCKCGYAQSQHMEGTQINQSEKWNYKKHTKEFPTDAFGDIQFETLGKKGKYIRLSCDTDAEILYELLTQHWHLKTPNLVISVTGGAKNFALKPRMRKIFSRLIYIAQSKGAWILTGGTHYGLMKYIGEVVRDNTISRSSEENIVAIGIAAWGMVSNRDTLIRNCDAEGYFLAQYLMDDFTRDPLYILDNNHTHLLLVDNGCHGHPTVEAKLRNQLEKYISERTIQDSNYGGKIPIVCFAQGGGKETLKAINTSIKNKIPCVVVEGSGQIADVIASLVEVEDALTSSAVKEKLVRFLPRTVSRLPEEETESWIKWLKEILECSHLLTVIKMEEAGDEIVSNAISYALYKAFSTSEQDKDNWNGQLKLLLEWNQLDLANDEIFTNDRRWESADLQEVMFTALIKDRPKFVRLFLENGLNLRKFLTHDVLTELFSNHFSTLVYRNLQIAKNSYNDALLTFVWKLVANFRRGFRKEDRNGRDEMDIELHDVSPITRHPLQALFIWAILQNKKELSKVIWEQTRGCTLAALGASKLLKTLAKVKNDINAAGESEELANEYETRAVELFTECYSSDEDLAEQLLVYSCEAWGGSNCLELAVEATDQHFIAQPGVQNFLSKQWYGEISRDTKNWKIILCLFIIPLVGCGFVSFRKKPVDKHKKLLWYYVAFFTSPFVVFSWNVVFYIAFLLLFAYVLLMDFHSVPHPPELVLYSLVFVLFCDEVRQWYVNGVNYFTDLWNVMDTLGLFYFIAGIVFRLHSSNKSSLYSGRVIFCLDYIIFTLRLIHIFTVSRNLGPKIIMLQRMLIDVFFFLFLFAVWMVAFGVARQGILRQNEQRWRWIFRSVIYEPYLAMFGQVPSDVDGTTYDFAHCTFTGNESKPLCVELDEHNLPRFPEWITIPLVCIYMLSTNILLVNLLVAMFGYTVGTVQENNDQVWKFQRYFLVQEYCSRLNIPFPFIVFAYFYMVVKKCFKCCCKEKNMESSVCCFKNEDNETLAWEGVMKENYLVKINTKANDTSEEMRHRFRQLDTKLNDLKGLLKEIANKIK
Description: Assay on TRPM8 modulators: Ca2+ signal (Fluo-4) in HEK293 cells stably transfected with human TRPM8. The assay is classed as cell-based. Also noted: Relative TRPM8 activation (%): concentration or dose not given beside the values.
Conditions: not given
From the text:
The starting point for cloning the human TRPM8 receptor is an LnCaP cDNA bank. This is commercially available (e.g. BioChain, Hayward, USA) or can be produced from the androgene-sensitive human prostate adenocarcinoma cell line LnCaP (e.g. ATCC, CRL1740 or ECACC, 891 1021 1) using standard kits.
The coding TRPM8 sequence (see e.g. http://www. ncbi.nlm.nih.gov/entrez/viewer.fcgi?db=nuccore&id=109689694) can be PCR amplified and cloned using standard methods. The human TRPM8 gene isolated in this way was used to produce the plasmid plnd_M8. Alternatively, the TRPM8 gene can also be produced synthetically.
As a test cell system, a stably transfected HEK293 cell line was produced with human TRPM8 DNA. Preference is given to HEK293, which offers the possibility of inducing TRPM8 expression with tetracycline via the introduced plasmid.
A test similar to the one already described in the literature by Behrendt H. J. et al., Br. J. Pharmacol. 141, 2004, 737-745, is performed. The agonisation or antagonisation of the receptor can be quantified by means of a Cab-sensitive dye (e.g. FURA, Fluo-4 etc.). Agonists alone cause an increase in the Ca^2+ signal; antagonists cause a reduction in the Ca^2+ signal in the presence of e.g. menthol (in each case detected via the dye Fluo-4, which has different fluorescence properties due to Ca^2+ ions).
First, a fresh culture of transformed HEK cells is prepared in cell culture flasks in a manner known per se. The HEK293-TRPM8 test cells are detached from the cell culture flasks using trypsin and 40,000 cells/well are seeded with 100 μl medium in 96-hole plates (Greiner #655948 poly-D-lysine-coated). Tetracycline is added to the growth medium to induce receptor TRPM8 (DMEM/HG, 10% FCS tetracycline-free, 4 mM L-glutamine, 15 μg/ml blasticidin, 100 μg/ml hygromycin B, 1 μg/ml tetracycline).
The following day, the cells are loaded with Fluo-4AM dye and the test is performed. The procedure is as follows: Addition of 100 μl/well staining solution Ca-4 Kit (RB 141, Molecular Devices) to each 100 μl medium (DMEM/HG, 10% FCS tetracycline-free, 4 mM L-glutamine, 15 μg/ml blasticidin, 100 μg/ml hygromycin B, 1 μg/ml tetracycline).
Incubation in incubator, 30 minutes/37° C./5% CO2, 30 minutes/RT.
Preparation of the test substances (different concentrations in 200 μl HBSS buffer), as well as positive controls (different concentrations of menthol, icilin or lonomycin in 200 μl HBSS buffer) and negative controls (only 200 μl HBSS buffer) addition of the test substances in amounts of 50 μl/well and measurement of the fluorescence change (e.g. in the assay device FLIPR, Molecular Devices or NovoStar, BMG) at 485 nm excitation, 520 nm emission, and evaluation of the potency of the different substances/concentrations and determination of the EC50 values.
The test substances are used in triplicates in concentrations of 0.1-200 μM in the assay. Normally, the compounds are kept ready in DMSO solutions and diluted down to a maximum DMSO concentration of 2% for the assay.
With the aid of the assay described, the activity of the active substances is determined in relation to activation of the TRPM8 channel. This is done in a concentration-dependent manner. As a standard, 6 to 10 concentrations are measured for each active substance. From the determined activity values, the EC50 value can be determined as the inflection point of the sigmoidal curve using a mathematical method (4-parameter or 5-parameter logistic curve fitting). These are standard methods of biochemistry that are quite familiar to the skilled person.
Regarding `Cc1ccc(N2CCC(C(=O)NCc3cccc4c3OCO4)CC2)nc1` [Compound 5 a], the “Relative TRPM8 activation (%)” value came to 2.4%.
On the same count and under the same terms, the same measure for `CCCC1CCN(c2cc(CNCc3cccc4c3OCO4)ccn2)CC1` [Compound 18 a]: −0.8%; for `CCN(Cc1ccnc(N2CCC(C)CC2)c1)Cc1cccc2c1OCO2` [Compound 19 a]: 3.4%; for `c1cc(CNCc2ccnc(-n3cccc3)c2)c2c(c1)OCO2` [Compound 22 a]: 3%.
The same measure, in the same setting: the same measure for `c1ccc(-c2cccc(CNCc3cccc4c3OCO4)c2)nc1` [Compound 22 c]: 3.6%.
Same read-out and setting: the same measure for `c1ccc(-c2cc(CNCc3cccc4c3OCO4)co2)cc1` [Compound 31 a]: 0%.
On to `c1cc(CNCc2cc3ccccc3o2)c2c(c1)OCO2` [Compound 32 a], for which the “Relative TRPM8 activation (%)” value amounted to 1.3%.
On the same count and under the same terms, the figure for `c1ccc(-c2cc(CNCc3cccc4c3OCO4)cs2)cc1` [Compound 43 a] is 0%; for `O=C(NCc1cccc2c1OCO2)c1ccnc(N2CCCCC2)c1` [Compound 51 a] it is 0%.

Still in this assay, the particulars now being: HEK293-TRPM8 cells, Fluo-4; read-out: Activity in vitro assay (EC50).
On to `COc1ccc(CNCc2ccnc(N3CCCCC3)c2)cc1` [Compound 87], for which the pEC50 (commonly the negative decadic logarithm of the EC50, by convention in mol/L) is 8.16.
On the same count and under the same terms, the figure for `c1cc(CNCc2ccnc(N3CCCCC3)c2)c2c(c1)OCO2` [Example 1] is 6.94; for `c1cc(CNCc2ccnc(N3CCOCC3)c2)c2c(c1)OCO2` [Example 2] it is 4.88; for `CC(NCc1cccc2c1OCO2)c1ccnc(N2CCCCC2)c1` (centres unmarked) [Example 8] it is 6.82.
Still for that read-out and setting: the figure for `CC(C)C(NCc1cccc2c1OCO2)c1ccnc(N2CCCCC2)c1` (centres unmarked) [Example 11] is 5.08; for `CC1CCN(c2cc(CNCc3cccc4c3OCO4)ccn2)CC1` [Example 12] it is 5.70; for `CC1CCCN(c2cc(CNCc3cccc4c3OCO4)ccn2)C1` (centres unmarked) [Example 13] it is 6.22.
The same measure, in the same setting: the same measure for `CC1CCCCN1c1cc(CNCc2cccc3c2OCO3)ccn1` (centres unmarked) [Example 14]: 6.48; for `CC1(C)CCN(c2cc(CNCc3cccc4c3OCO4)ccn2)CC1` [Example 15]: 5.58; for `CC1CC(C)CN(c2cc(CNCc3cccc4c3OCO4)ccn2)C1` (centres unmarked) [Example 16]: 5.60.
On to `CC1(C)CCCN(c2cc(CNCc3cccc4c3OCO4)ccn2)C1` [Example 17], for which the pEC50 is 6.14.
On the same count and under the same terms, the same measure for `CCC1CCCN(c2cc(CNCc3cccc4c3OCO4)ccn2)C1` (centres unmarked) [Example 18]: 5.70.
The same measure, in the same setting: the same measure for `c1cc(CNCc2ccnc(N3CCSCC3)c2)c2c(c1)OCO2` [Example 22]: 5.92.
Still for that read-out and setting: the figure for `COc1cccc(CNCc2ccnc(N3CCCCC3)c2)c1OC` [Example 23] is 6.12; for `CCOc1cccc(CNCc2ccnc(N3CCCCC3)c2)c1OC` [Example 24] it is 5.95.
Turning to `CCOc1cccc(CNCc2ccnc(N3CCCCC3)c2)c1OCC` [Example 25], the pEC50 was 5.23.
Consider `COc1ccc(CNCc2ccnc(N3CCCCC3)c2)cc1` [Example 27], for which the pEC50 is 7.00 and ≥ 6.00.
Still for that read-out and setting: the same measure for `CSc1cc(CNCc2cccc3c2OCO3)ccn1` [Example 29]: 5.19; for `c1cc(CCNCCc2ccnc(N3CCCCC3)c2)c2c(c1)OCO2` [Example 34]: 6.10.
The same measure, in the same setting: the same measure for `c1ccc(CNCc2ccnc(N3CCCCC3)c2)cc1` [Example 39]: 7.22.
The same measure, in the same setting: the figure for `Cc1ccc(CNCc2ccnc(N3CCCCC3)c2)cc1` [Example 41] is 6.82; for `COc1cccc(CNCc2ccnc(N3CCCCC3)c2)c1` [Example 49] it is 6.22; for `COc1ccc(CNCc2ccnc(N3CCSCC3)c2)cc1` [Example 58] it is 4.80.
As for `COc1ccc(CNCc2cccc(N3CCCC3)c2)cc1` [Example 64], the pEC50 is 5.75.
Still for that read-out and setting: the figure for `CCNC(=O)[C@@H]1C[C@H](C)CC[C@H]1C(C)C` [WS-3, L-menthanecarboxylic acid-N-ethylamide, reference compound] is 5.76.

Another assay concerns oral cavity. Description: Sensory tasting of cooling intensity by trained panellists. The assay is classed as in vivo, human. Particulars: 5 ppm in 5% sugar solution, tasted 40 seconds, rated after one minute, scale 1 (very weak) to 9 (very strong). The method, then: In order to quantify the cooling effect, comparative tests are carried out using menthan-3-carboxylic acid-N-ethylamide as a reference. For these comparative tests, the skilled person replaces the compound or compounds to be used according to the invention with menthan-3-carboxylic acid-N-ethylamide (also referred to as WS-3). Then the intensities of the cooling effects of the respective compounds or active substances are sensory evaluated by trained panellists (n=10 to 11) as described below and compared with each other.
The investigation of the cooling intensity was carried out as follows: Test solutions containing 5 ppm of the compounds of the invention were each tasted in a 5% sugar solution as well as a corresponding solution containing 30 ppm of the reference substance WS-3. […] The corresponding test solutions were tasted by the panellists for a time of exactly 40 seconds, rinsing the entire oral cavity with the corresponding test solution and then spitting out the sample or reference solution. Following the tasting, the test persons rated the respective cooling intensity after one minute according to a scale from 1 (very weak) to 9 (very strong).
Regarding `COc1ccc(C(C)NCc2ccnc(N3CCCCC3)c2)cc1` (centres unmarked) [Compound 85], the Cooling intensity came out at 2.1.
